Results on 22 molecules are retold here after EP4813991A1 (iLeadBMS Co., Ltd., priority 2023, dated 2025).

The structures appear in SMILES notation. Where two headings read alike, the source gives them in different places.

Experiment [1] has as its target T1, CDK12 (Homo sapiens, UniProt Q9NYV4). Description: CDK12 kinase inhibitory activity assay (33P-ATP filter binding). Format: biochemical. The gist of the method:
(§1)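 Radiometric filter-binding read-out: after 20 min compound–enzyme/substrate pre-incubation across 9 concentrations, reaction started with ^33P-γ-ATP and run 120 min at room temperature. Filter-bound ^33P-substrate measured after 0.75 % phosphoric acid washes; remaining activity versus DMSO gives IC50.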

Experiment [2] has as its target CDK13 (Homo sapiens, UniProt Q14004). Briefly: CDK13 kinase inhibitory activity assay (33P-ATP filter binding). Format: biochemical. The gist of the method: as §1
Experiment [3] concerns MDA-MB-231 breast cancer cells. Briefly: Proliferation inhibitory activity assay against MDA-MB-231 breast cancer cells. It counts as cell-based. To be noted: Homo sapiens, 72 hours, CellTiter Glo, relative IC50. The gist of the method:
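Cells grown in L-15 with 10% FBS at 37 °C, 0% CO2, then exposed next day to compounds at 9 concentrations (DMSO vehicle) for 72 h. Viability read by CellTiter Glo luminescence; relative IC50 from dose-response curve fit.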
(ATP-based viability assays read luminescence as a measure of living cells.)

Experiment [4] addresses T1, CDK12. Briefly: Cellular CDK12 inhibitory activity assay (Ser2 phosphorylation of RNA polymerase II subunit B1 CTD in MDA-MB-231 cells). It counts as cell-based. Also on record: using MDA-MB-231 breast cancer cells; endogenous in cells; host or cells: MDA-MB-231. The conditions noted are these: MDA-MB-231 cells, 6 hours treatment; read-out: pRpbl CTD S2 IC50. The gist of the method: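 MDA-MB-231 cells in L-15 with 10 % FBS were treated with compound at 9 concentrations for 6 h at 37 °C, 0 % CO2. In-Cell Western read phospho-Ser2 and total RNA polymerase II CTD on a Li-COR Odyssey; IC50 from 4-parameter dose-response fit.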

The mark [5] stands for this setting: kinase reaction 120 minutes, 33P-gamma-ATP, read-out: CDK12 IC50.
Where [6] appears, read: kinase reaction 120 minutes, 33P-gamma-ATP, read-out: CDK13 IC50.

Chain of CDK13 (Q14004 whole entry, species assumed): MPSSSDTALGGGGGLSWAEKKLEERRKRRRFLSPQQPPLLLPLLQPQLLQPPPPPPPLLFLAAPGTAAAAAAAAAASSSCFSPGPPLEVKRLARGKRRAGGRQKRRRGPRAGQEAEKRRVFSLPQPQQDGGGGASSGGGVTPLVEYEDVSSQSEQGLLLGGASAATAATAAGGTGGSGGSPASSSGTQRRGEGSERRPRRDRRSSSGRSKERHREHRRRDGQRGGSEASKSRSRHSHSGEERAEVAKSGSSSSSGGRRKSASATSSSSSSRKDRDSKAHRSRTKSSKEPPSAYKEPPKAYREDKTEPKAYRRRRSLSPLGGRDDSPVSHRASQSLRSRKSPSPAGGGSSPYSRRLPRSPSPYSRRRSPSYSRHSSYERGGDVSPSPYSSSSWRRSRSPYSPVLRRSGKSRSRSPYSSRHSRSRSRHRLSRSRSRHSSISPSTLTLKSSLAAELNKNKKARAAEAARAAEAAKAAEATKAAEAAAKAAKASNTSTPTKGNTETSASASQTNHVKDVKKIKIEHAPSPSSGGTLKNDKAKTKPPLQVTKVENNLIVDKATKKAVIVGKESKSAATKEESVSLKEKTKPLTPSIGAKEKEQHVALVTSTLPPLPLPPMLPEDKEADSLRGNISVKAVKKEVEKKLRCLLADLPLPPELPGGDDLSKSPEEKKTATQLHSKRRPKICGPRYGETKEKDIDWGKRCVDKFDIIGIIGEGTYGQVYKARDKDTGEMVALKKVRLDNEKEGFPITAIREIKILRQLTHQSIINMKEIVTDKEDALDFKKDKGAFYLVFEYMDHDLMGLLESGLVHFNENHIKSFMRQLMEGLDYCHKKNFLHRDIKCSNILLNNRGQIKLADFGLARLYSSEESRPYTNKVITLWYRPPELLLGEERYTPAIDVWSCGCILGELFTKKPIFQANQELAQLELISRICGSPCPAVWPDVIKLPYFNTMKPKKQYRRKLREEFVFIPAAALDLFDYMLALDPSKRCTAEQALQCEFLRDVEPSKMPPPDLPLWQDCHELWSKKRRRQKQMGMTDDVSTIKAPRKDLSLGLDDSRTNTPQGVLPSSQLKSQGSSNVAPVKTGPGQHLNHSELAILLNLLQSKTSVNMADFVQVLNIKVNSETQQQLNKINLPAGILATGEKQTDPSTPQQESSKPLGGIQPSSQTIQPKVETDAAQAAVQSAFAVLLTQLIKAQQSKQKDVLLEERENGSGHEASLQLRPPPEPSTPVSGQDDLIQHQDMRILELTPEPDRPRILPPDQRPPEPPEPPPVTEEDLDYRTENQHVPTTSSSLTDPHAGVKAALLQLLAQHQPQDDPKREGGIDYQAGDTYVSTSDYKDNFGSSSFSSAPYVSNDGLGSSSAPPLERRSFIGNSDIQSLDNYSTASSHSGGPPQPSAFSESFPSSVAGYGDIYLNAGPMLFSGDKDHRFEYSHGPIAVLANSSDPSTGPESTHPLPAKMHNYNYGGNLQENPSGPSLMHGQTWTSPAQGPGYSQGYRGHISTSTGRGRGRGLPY
Chain of CDK13 (O75909 whole entry partner, species assumed): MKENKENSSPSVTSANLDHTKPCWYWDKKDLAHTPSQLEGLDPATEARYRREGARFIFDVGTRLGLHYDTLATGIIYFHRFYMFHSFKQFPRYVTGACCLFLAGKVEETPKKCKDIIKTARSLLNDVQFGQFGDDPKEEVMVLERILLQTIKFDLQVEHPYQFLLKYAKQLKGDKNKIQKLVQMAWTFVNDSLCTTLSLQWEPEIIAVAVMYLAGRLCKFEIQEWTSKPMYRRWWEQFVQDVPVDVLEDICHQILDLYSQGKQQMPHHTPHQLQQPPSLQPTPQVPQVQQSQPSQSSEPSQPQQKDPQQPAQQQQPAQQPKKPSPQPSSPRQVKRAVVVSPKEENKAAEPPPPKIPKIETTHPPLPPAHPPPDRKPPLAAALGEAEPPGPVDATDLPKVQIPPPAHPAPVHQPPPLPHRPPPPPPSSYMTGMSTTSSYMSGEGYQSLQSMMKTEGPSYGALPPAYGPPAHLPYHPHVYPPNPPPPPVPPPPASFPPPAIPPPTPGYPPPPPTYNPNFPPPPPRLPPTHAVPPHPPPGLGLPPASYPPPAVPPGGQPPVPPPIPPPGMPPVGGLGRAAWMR
T1 sequence (Q9NYV4 whole entry, species assumed): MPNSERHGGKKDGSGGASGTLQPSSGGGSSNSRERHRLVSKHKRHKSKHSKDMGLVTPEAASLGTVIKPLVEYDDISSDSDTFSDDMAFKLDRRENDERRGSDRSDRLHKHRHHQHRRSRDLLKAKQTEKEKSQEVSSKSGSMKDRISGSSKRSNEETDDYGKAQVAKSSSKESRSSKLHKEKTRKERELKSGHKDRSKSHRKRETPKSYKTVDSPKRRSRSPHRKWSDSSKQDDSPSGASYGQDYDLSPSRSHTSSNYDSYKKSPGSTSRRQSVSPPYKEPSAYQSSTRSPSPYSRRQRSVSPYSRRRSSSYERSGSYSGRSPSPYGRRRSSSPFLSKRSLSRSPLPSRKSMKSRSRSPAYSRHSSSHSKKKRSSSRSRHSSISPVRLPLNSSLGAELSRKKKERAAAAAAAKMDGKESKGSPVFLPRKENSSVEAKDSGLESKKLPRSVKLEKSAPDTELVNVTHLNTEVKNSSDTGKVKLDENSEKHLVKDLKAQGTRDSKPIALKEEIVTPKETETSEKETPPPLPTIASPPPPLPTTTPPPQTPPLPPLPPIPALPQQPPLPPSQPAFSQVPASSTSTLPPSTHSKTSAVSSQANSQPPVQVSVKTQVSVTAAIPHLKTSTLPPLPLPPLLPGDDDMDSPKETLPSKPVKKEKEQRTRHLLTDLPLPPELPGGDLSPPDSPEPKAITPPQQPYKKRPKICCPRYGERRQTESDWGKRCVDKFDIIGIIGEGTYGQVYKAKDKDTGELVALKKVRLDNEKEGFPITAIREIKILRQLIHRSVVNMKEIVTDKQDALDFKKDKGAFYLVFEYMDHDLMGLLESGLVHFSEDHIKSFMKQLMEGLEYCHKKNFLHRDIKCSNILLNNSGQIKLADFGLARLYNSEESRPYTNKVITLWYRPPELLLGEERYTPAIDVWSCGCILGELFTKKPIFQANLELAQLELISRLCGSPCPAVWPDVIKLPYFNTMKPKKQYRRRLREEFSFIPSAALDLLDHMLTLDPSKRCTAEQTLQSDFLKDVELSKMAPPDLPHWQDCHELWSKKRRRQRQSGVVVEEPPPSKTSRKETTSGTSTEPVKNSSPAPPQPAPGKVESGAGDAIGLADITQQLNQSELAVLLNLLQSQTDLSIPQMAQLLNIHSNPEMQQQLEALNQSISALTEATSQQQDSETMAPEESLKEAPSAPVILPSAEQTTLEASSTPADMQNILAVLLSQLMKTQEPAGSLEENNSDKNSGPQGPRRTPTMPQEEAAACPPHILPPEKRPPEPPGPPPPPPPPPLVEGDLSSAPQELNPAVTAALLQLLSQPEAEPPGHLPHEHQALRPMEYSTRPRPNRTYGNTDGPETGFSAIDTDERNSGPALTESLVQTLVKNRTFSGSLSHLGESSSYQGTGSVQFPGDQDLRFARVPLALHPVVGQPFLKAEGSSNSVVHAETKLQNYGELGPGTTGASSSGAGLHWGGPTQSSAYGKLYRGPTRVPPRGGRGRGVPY
T1 sequence (O75909 whole entry partner, species assumed): as the sequence (O75909 whole entry partner, species assumed) above

One may read the IC50 as the concentration at which inhibition is half-maximal. Take `Fc1ccc2nc(CNc3cc(N4CCN(C5CC5)CC4)nn4c(C(F)(F)F)cnc34)[nH]c2c1F` [Example 28, 6-(4-cyclopropylpiperazin-1-yl)-N-((6,7-difluoro-1H-benzo[d]imidazol-2-yl)methyl)-3-(trifluoromethyl)imidazo[1,2-b]pyridazin-8-amine]: the IC50 in experiment [1] (setting [5]) was 100 to 500 nM; in experiment [2], 100 to 500 nM; in experiment [3] it was 50 to 500 nM; in experiment [4], 300 to 3000 nM.
As to `Fc1ccc2nc(CNc3cc(N4CCOCC4)nn4c(CC(F)(F)F)cnc34)[nH]c2c1F` [Example 2, N-((6,7-difluoro-1H-benzo[d]imidazol-2-yl)methyl)-6-morpholino-3-(2,2,2-trifluoroethyl)imidazo[1,2-b]pyridazin-8-amine], the IC50 in experiment [1] (setting [5]) lay in the range of 100 to 500 nM; in experiment [2] it was 100 to 500 nM; in experiment [3] it was 50 to 500 nM; in experiment [4] it was 300 to 3000 nM.
As to `Fc1ccc2nc(CNc3cc(N4CCOCC4)nn4c(C#CC5CC5)cnc34)[nH]c2c1F` [Example 25, 3-(cyclopropylethynyl)-N-((6,7-difluoro-1H-benzo[d]imidazol-2-yl)methyl)-6-morpholinoimidazo[1,2-b]pyridazin-8-amine], the IC50 was greater than 500 nM in experiment [1] (setting [5]), greater than 500 nM in experiment [2] (setting [6]), greater than 500 nM in experiment [3] and greater than 3000 nM in experiment [4].
As to `FC(F)(F)c1cnc2c(NCc3cc4cccnc4[nH]3)cc(N3CCOCC3)nn12` [Example 84, N-((1H-pyrrolo[2,3-b]pyridin-2-yl)methyl)-6-morpholino-3-(trifluoromethyl)imidazo[1,2-b]pyridazin-8-amine], the IC50 in experiment [1] (setting [5]) is less than 100 nM; in experiment [2], less than 100 nM; in experiment [3], 50 to 500 nM; in experiment [4], 300 to 3000 nM.
As to `O=C(CO)C1CCN(c2cc(NCc3nc4cc(Cl)c(Cl)cc4[nH]3)c3ncc(C(F)(F)F)n3n2)CC1` [Example 114, 1-(1-(8-(((5,6-dichloro-1H-benzo[d]imidazol-2-yl)methyl)amino)-3-(trifluoromethyl)imidazo[1,2-b]pyridazin-6-yl)piperidin-4-yl)-2-hydroxyethan-1-one], the IC50 is less than 100 nM in experiment [1] (setting [5]), less than 100 nM in experiment [2], no more than 50 nM in experiment [3] and less than 300 nM in experiment [4].
For `CC(=O)N1CCN(c2cc(NCc3nc4cc(Cl)c(Cl)cc4[nH]3)c3ncc(C(F)(F)F)n3n2)CC1` [Example 51, 1-(4-(8-(((5,6-dichloro-1H-benzo[d]imidazol-2-yl)methyl)amino)-3-(trifluoromethyl)imidazo[1,2-b]pyridazin-6-yl)piperazin-1-yl)ethan-1-one], the IC50 in experiment [1] (setting [5]) is less than 100 nM; in experiment [2] (setting [6]) it was less than 100 nM; in experiment [3] it was no more than 50 nM; in experiment [4], less than 300 nM.
Consider `O[C@@H]1CCN(c2cc(NCc3nc4cc(Cl)c(Cl)cc4[nH]3)c3ncc(C(F)(F)F)n3n2)C1` [Example 62, (R)-1-(8-(((5,6-dichloro-1H-benzo[d]imidazol-2-yl)methyl)amino)-3-(trifluoromethyl)imidazo[1,2-b]pyridazin-6-yl)pyrrolidin-3-ol], for which the IC50 in experiment [1] (setting [5]) is 100 to 500 nM; in experiment [2], 100 to 500 nM; in experiment [3], 50 to 500 nM; in experiment [4], less than 300 nM.
In the case of `FC(F)(F)c1cnc2c(NCc3cc4ccccn4n3)cc(N3CCOCC3)nn12` [Example 86, 6-morpholino-N-(pyrazolo[1,5-a]pyridin-2-ylmethyl)-3-(trifluoromethyl)imidazo [1,2-b]pyridazin-8-amine], the IC50 in experiment [1] (setting [5]) was less than 100 nM; in experiment [2] (setting [6]), less than 100 nM; in experiment [3], greater than 500 nM; in experiment [4], 300 to 3000 nM.
As to `N#CC1CN(c2cc(NCc3nc4ccc(Cl)c(Cl)c4[nH]3)c3ncc(C(F)(F)F)n3n2)C1` [Example 55, 1-(8-(((6,7-dichloro-1H-benzo[d]imidazol-2-yl)methyl)amino)-3-(trifluoromethyl)imidazo[1,2-b]pyridazin-6-yl)azetidine-3-carbonitrile], the IC50 in experiment [1] (setting [5]) is less than 100 nM; in experiment [2] (setting [6]), less than 100 nM; in experiment [3], 50 to 500 nM; in experiment [4], 300 to 3000 nM.
As to `C[C@@H]1CN(c2cc(NCc3nc4cc(F)c(F)cc4[nH]3)c3ncc(C(F)(F)F)n3n2)C[C@H](C)N1` [Example 112, N-((5,6-difluoro-1H-benzo[d]imidazol-2-yl)methyl)-6-((3S, 5R)-3,5-dimethylpiperazin-1-yl)-3-(trifluoromethyl)imidazo[1,2-b]pyridazin-8-amine], the IC50 in experiment [1] (setting [5]) is less than 100 nM; in experiment [2] (setting [6]), less than 100 nM; in experiment [3] it was no more than 50 nM; in experiment [4] it was less than 300 nM.
Take `NC1CN(c2cc(NCc3nc4cc(Cl)c(Cl)cc4[nH]3)c3ncc(C(F)(F)F)n3n2)C1` [Example 36]: the IC50 is less than 100 nM in experiment [1] (setting [5]), less than 100 nM in experiment [2] (setting [6]), no more than 50 nM in experiment [3] and less than 300 nM in experiment [4].
`FC(F)(F)c1cnc2c(NCc3nc4cc(Cl)c(Cl)cc4[nH]3)cc(N3CC4CC(C3)N4)nn12` [Example 97, 6-(3,6-diazabicyclo[3.1.1]heptan-3-yl)-N-((5,6-dichloro-1H-benzo[d]imidazol-2-yl)methyl)-3-(trifluoromethyl)imidazo[1,2-b]pyridazin-8-amine]: the IC50 in experiment [1] (setting [5]) was less than 100 nM; in experiment [2] (setting [6]), less than 100 nM; in experiment [3], no more than 50 nM; in experiment [4], less than 300 nM.
Regarding `FC(F)(F)c1cnc2c(NCc3cn4ncccc4n3)cc(N3CCOCC3)nn12` [Example 85, N-(imidazo[1,2-b]pyridazin-2-ylmethyl)-6-morpholino-3-(trifluoromethyl)imidazo[1,2-b]pyridazin-8-amine], the IC50 is less than 100 nM in experiment [1] (setting [5]), less than 100 nM in experiment [2], greater than 500 nM in experiment [3] and greater than 3000 nM in experiment [4].
With `FC(F)(F)c1cnc2c(NCc3nc4cc(Cl)c(Cl)cc4[nH]3)cc(N3CC4CC(C3)O4)nn12` [Example 32], the IC50 was 100 to 500 nM in experiment [1] (read-out: CDK12 IC50, kinase reaction 120 minutes, 33P-gamma-ATP); 100 to 500 nM in experiment [2] (setting [6]); no more than 50 nM in experiment [3]; less than 300 nM in experiment [4].
In the case of `CN1C2CCC1CN(c1cc(NCc3nc4cc(Cl)c(Cl)cc4[nH]3)c3ncc(C(F)(F)F)n3n1)C2` [Example 33], the IC50 in experiment [1] (setting [5]) was less than 100 nM; in experiment [2] (setting [6]), less than 100 nM; in experiment [3], no more than 50 nM; in experiment [4] it was less than 300 nM.
Regarding `Fc1cc2nc(CNc3cc(N4CCNCC4)nn4c(C(F)(F)F)cnc34)[nH]c2cc1F` [Example 109], the IC50 in experiment [1] (setting [5]) was less than 100 nM; in experiment [2] (setting [6]) it was less than 100 nM; in experiment [3], no more than 50 nM; in experiment [4] it was less than 300 nM.
In the case of `Fc1ccc2nc(CNc3cc(N4CC5CCC(C4)O5)nn4c(C(F)(F)F)cnc34)[nH]c2c1F` [Example 9], the IC50 in experiment [1] is less than 100 nM; in experiment [2] (setting [6]), less than 100 nM; in experiment [3], no more than 50 nM; in experiment [4] it was less than 300 nM.
Consider `FC(F)(F)c1ccc2[nH]c(CNc3cc(N4CCOCC4)nn4c(C(F)(F)F)cnc34)nc2c1` [Example 78, 6-morpholino-3-(trifluoromethyl)-N-((5-(trifluoromethyl)-1H-benzo[d]imidazol-2-yl)methyl)imidazo[1,2-b]pyridazin-8-amine], for which the IC50 in experiment [1] (setting [5]) is less than 100 nM; in experiment [2] (setting [6]), less than 100 nM; in experiment [3], 50 to 500 nM; in experiment [4] it was 300 to 3000 nM.
`C#Cc1cnc2c(NCc3nc4ccc(F)c(F)c4[nH]3)cc(N3CCOCC3)nn12` [Example 1, N-((6,7-difluoro-1H-benzo[d]imidazol-2-yl)methyl)-3-ethynyl-6-morpholinoimidazo[1,2-b]pyridazin-8-amine]: the IC50 in experiment [1] (setting [5]) was 100 to 500 nM; in experiment [2] it was less than 100 nM; in experiment [3], 50 to 500 nM; in experiment [4], 300 to 3000 nM.
`CC1(O)CCN(c2cc(NCc3nc4cc(Cl)c(Cl)cc4[nH]3)c3ncc(C(F)(F)F)n3n2)CC1` [Example 53, 1-(8-(((5,6-dichloro-1H-benzo[d]imidazol-2-yl)methyl)amino)-3-(trifluoromethyl)imidazo[1,2-b]pyridazin-6-yl)-4-methylpiperidin-4-ol]: the IC50 in experiment [1] (setting [5]) was 100 to 500 nM; in experiment [2] (setting [6]), 100 to 500 nM; in experiment [3] it was no more than 50 nM; in experiment [4] it was less than 300 nM.
As for `O=C(O)C1CN(c2cc(NCc3nc4cc(Cl)c(Cl)cc4[nH]3)c3ncc(C(F)(F)F)n3n2)C1` [Example 64, 1-(8-(((5,6-dichloro-1H-benzo[d]imidazol-2-yl)methyl)amino)-3-(trifluoromethyl)imidazo[1,2-b]pyridazin-6-yl)azetidine-3-carboxylic acid], the 50% inhibitory concentration (IC50) is 100 to 500 nM in experiment [1] (setting [5]), less than 100 nM in experiment [2] (setting [6]), greater than 500 nM in experiment [3] and greater than 3000 nM in experiment [4].
On the same counts, the results for `NC(=O)C1CN(c2cc(NCc3nc4cc(Cl)c(Cl)cc4[nH]3)c3ncc(C(F)(F)F)n3n2)C1` [Example 65, 1-(8-(((5,6-dichloro-1H-benzo[d]imidazol-2-yl)methyl)amino)-3-(trifluoromethyl)imidazo[1,2-b]pyridazin-6-yl)azetidine-3-carboxamide] are less than 100 nM, less than 100 nM, 50 to 500 nM and less than 300 nM.
